Data published in ChEMBL document CHEMBL1129806, “Diastereoselective synthesis of trans-2-(1-triphenylmethyl-1H-imidazol-4-yl)cyclopropanecarboxylic acids: key intermediates for the preparation of potent and chiral histamine H3 receptor agents” (Bioorg Med Chem Lett, 1997).

Biological target: Histamine H3 receptor (Rattus norvegicus, UniProt Q9QYN8)
Experiment: Histamine H3 receptor affinity of compound was determined in rat cortical membranes using the H3 selective agonist ligand, [3H]N-alpha-methylhistamine
Type: cell membranes, Membrane

Histamine H3 receptor, sequence (Q9QYN8 whole entry): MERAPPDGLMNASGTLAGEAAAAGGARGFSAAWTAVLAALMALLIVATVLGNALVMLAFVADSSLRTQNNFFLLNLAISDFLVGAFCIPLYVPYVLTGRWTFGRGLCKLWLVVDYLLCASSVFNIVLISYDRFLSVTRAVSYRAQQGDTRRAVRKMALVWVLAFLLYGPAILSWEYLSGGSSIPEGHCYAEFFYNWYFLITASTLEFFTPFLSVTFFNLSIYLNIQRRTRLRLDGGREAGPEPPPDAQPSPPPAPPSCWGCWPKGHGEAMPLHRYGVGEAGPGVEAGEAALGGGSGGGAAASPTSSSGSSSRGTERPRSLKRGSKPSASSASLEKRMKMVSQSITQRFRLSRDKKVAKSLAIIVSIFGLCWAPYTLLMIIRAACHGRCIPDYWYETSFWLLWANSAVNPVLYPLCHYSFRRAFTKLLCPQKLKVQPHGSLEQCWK

Ki: 0.3 nM
SMILES: Ic1ccc(COCCCc2c[nH]cn2)cc1 [IODOPROXYFAN]
